Results on ten molecules are retold here after PMC10461462, “A critical inter‐subunit interaction for the transmission of the allosteric signal in the Agrobacterium tumefaciens ADP‐glucose pyrophosphorylase” (Protein Science : A Publication of the Protein Society, 2023).

For orientation: stoichiometry N means a count of units in the complex or per binding partner. As a reminder, the Kd is the concentration at which binding is half-saturated.

Data set [1] addresses Agrobacterium tumefaciens ADP-glucose pyrophosphorylase mutant D141A (Agrobacterium tumefaciens) (UniProt P39669). Briefly: SEC.
For data set [2], the target named is T1, D141A (Agrobacterium tumefaciens, UniProt P39669, D141A).
T1 construct: gene glgC; His-tagged, from pBLH1/pBHL1 derivative, expressed in E. coli BL21(DE3); homotetramer
Briefly: Activator saturation of ADP-Glc synthesis (PPi converted to phosphate, Malachite Green) in 50 mM HEPES pH 7.5, 7 mM MgCl2, 1.5 mM Glc1P, 1.5 mM ATP; modified Hill fit. The conditions noted are these: n = 2; read-out: A0.5. Format: biochemical. As for the experimental part: (§1) This condition was considered “saturating concentrations” of substrate. To analyze the effect of the activators in “sub‐saturating concentrations” of substrate, the concentration of ATP was 0.2 mM.
(§2) Table S1 . Kinetic parameters for the activators of the A. tumefaciens ADP -Glc PPase wild type, and mutants.
(§3) a Assays were performed as described in Materials and Methods under “activator saturation assay”.
(§4) b Activation fold is calculated by dividing the maximum velocity (Vm) by the velocity in the absence of activator (V0).

Data set [3] addresses T2, R11K (Agrobacterium tumefaciens, UniProt P39669, R11K).
T2 construct: gene glgC; His-tagged, from pBLH1/pBHL1 derivative, expressed in E. coli BL21(DE3); homotetramer
Described as above. The data set is classed as biochemical. The following applies: n = 2. On the procedure:
as §1, §2, §3, §4

Data set [4] concerns the target T3, WT (Agrobacterium tumefaciens, UniProt P39669).
T3 construct: gene glgC; His-tagged, from pBLH1/pBHL1 (pET28c derivative), expressed in E. coli BL21(DE3); homotetramer
T3 sequence (P39669 1-420): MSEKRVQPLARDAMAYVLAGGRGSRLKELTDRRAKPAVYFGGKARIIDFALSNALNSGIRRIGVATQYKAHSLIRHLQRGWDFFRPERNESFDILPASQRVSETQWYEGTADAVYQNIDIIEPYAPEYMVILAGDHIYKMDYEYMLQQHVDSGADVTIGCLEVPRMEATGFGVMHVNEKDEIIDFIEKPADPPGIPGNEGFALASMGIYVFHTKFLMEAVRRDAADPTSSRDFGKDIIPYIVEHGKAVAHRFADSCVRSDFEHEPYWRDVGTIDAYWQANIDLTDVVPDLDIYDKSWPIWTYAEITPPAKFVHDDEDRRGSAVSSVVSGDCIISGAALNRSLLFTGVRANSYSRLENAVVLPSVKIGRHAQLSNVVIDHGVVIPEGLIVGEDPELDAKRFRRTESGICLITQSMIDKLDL
The data set is described as above. The conditions noted are these: n = 2; read-out: A0.5. The data set is classed as biochemical. On the procedure:
as §1, §2, §3, §4

In data set [5] the target is T4, D141E (Agrobacterium tumefaciens, UniProt P39669, D141E).
T4 construct: gene glgC; His-tagged, from pBLH1/pBHL1 derivative, expressed in E. coli BL21(DE3); homotetramer
The description is as above. The data set is classed as biochemical. The following applies: n = 2. As for the experimental part:
as §1, §2, §3, §4

For data set [6], the target named is T1, D141A. In words: Activator saturation of ADP-Glc synthesis (Malachite Green) at pH 7.5 with 1.5 mM Glc1P and 4 mM ATP; modified Hill fit. The data set is classed as biochemical. The following applies: n = 2; read-out: A0.5. On the procedure: as §1
(§5) The assays were performed as described in Materials and Methods in the presence of 4 mM ATP.
(§6) (1 picture or pasted object on this page, not shown here)

The target of data set [7] is T3, WT. In words: Thermal shift assay (SYPRO Orange) with varied ligand concentration in 50 mM HEPES pH 8.0, 0.02 mg/mL protein, 25-95 C; Tm versus log ligand concentration fitted to obtain Kd. The data set is classed as binding. The following applies: n = 3. On the procedure:
(§7) We used thermal shift assays to find whether the effect of the mutation was on the ability of Fru6P/Pyr either to bind or activate the enzyme. Activators of ADP‐Glc PPase bind to the enzyme and stabilize it from thermal denaturation (Bhayani & Ballicora, [2022]).
(§8) Thermal shift assays were performed as described (Hill et al., [2019]) using the QuantStudio™ 3 Real‐Time PCR System (Thermo Fisher Scientific) and QuantStudio™ Design and Analysis Software v1.5.1. The final volume for the assay was 20 μL and contained 50 mM HEPES (pH 8.0), SYPRO Orange Dye (Sigma‐Aldrich) (4×) and 0.02 mg/mL purified protein, in the absence or presence of 5 mM Fru6P, and 5 mM Pyr. A control with no protein was also performed for all the samples. A continuous temperature increases from 25.0 to 95.0°C was scanned at a ramp increment of 0.1°C per second. Scans were run in triplicates and averaged. The unfolding temperatures (T m ) of the proteins were measured using the minimum of the third derivative of the scanned fluorescence vs. temperature (d^3F/dT^3) (Bhayani & Ballicora, [2022]).
(§9) Thermal Shift assays were used to study the relationship between the melting temperature ( Tm ) of a protein and the logarithm of the ligand concentration using the following equation (Bhayani & Ballicora, [2022]). y=Tm0+Alog101+10^x/Kd.
(§10) In this equation, y is Tm , and x is the logarithm of the ligand concentration. […] The data was fitted to an equation using Origin™ 2017 and the Levenberg–Marquardt algorithm, to find the optimum parameters Tm0 , A , and Kd (Bhayani & Ballicora, [2022]). To ensure robustness and reliability, all thermal shift assays were conducted in triplicate.

Data set [8] has as its target T5, R11D (Agrobacterium tumefaciens, UniProt P39669, R11D).
T5 construct: gene glgC; His-tagged, from pBLH1/pBHL1 derivative, expressed in E. coli BL21(DE3); homotetramer
The description is as above. The data set is classed as binding. The following applies: n = 3. On the procedure: as §7, §8, §9, §10

Data set [9] concerns the target T6, D141N (Agrobacterium tumefaciens, UniProt P39669, D141N).
T6 construct: gene glgC; His-tagged, from pBLH1/pBHL1 derivative, expressed in E. coli BL21(DE3); homotetramer
In words: Effector saturation of ADP-Glc synthesis (Malachite Green) at pH 7.5 with 1.5 mM Glc1P and 4 mM ATP, effector inhibiting instead of activating; modified Hill fit. The data set is classed as biochemical. The conditions noted are these: n = 2; read-out: A0.5 (mM), footnote: I0.5. As for the experimental part:
as §1, §5, §6

In data set [10] the target is Agrobacterium tumefaciens ADP-glucose pyrophosphorylase mutant D141R (Agrobacterium tumefaciens) (UniProt P39669). In words: SEC. For orientation: In gel filtration, larger molecules generally elute earlier.
In data set [11] the target is Agrobacterium tumefaciens ADP-glucose pyrophosphorylase mutant R11D (Agrobacterium tumefaciens) (UniProt P39669). In words: SEC.
Data set [12] deals with Agrobacterium tumefaciens ADP-glucose pyrophosphorylase mutant D141N (Agrobacterium tumefaciens) (UniProt P39669). Briefly: SEC.
In data set [13] the target is Agrobacterium tumefaciens ADP-glucose pyrophosphorylase double mutant R11D/D141R (Agrobacterium tumefaciens) (UniProt P39669). Briefly: SEC.
Data set [14] deals with T7, R11D/D141R (Agrobacterium tumefaciens, UniProt P39669, D141R/R11D).
T7 construct: gene glgC; His-tagged, from pBLH1/pBHL1 derivative, expressed in E. coli BL21(DE3); homotetramer
In words: Activator saturation of ADP-Glc synthesis (PPi converted to phosphate, Malachite Green) in 50 mM HEPES pH 7.5, 7 mM MgCl2, 1.5 mM Glc1P, 1.5 mM ATP; modified Hill fit. The data set is classed as biochemical. The following applies: n = 2; read-out: A0.5. As for the experimental part: as §1, §2, §3, §4

Data set [15] has as its target T6, D141N. The data set is described as above. Format: biochemical. The conditions noted are these: n = 2; read-out: A0.5. On the procedure:
as §1, §2, §3, §4

The subject of data set [16] is T8, R11A.
T8 construct: values from literature (Gomez-Casati et al., 2001)
The data set is described as above. Format: biochemical. Also on record: method as in values quoted from other papers. The conditions noted are these: n = 2; read-out: A0.5; cited from earlier work. On the procedure: as §1, §2, §3, §4

Data set [17] addresses Agrobacterium tumefaciens ADP-glucose pyrophosphorylase mutant D141E (Agrobacterium tumefaciens) (UniProt P39669). Briefly: SEC.
Data set [18] addresses Agrobacterium tumefaciens ADP-glucose pyrophosphorylase mutant R11K (Agrobacterium tumefaciens) (UniProt P39669). Briefly: SEC.
Data set [19] deals with the molecule itself. In words: SEC.

Where two headings read alike, the source gives them in different places.

The molecule “Agrobacterium tumefaciens ADP-glucose pyrophosphorylase mutant D141A (from UniProt P39669) (enzyme)” had a stoichiometry N in data set [1] of 4.

Turning to `CC(=O)C(=O)O` [Pyr, pyruvate], the EC50 in data set [2] amounted to 300 µM; in [3] it was 40 µM; in [4], 450 µM; in data set [5], 60 µM; in data set [6], 49 µM. For the same molecule, the Kd in data set [7] worked out at 233 µM; in data set [8], 54 µM. In addition, in [9], the IC50 came to 0.075 mM.

For “Agrobacterium tumefaciens ADP-glucose pyrophosphorylase mutant D141R (from UniProt P39669) (enzyme)”, in data set [10], the stoichiometry N turned out to be 2.

Molecule “Agrobacterium tumefaciens ADP-glucose pyrophosphorylase mutant R11D (from UniProt P39669) (enzyme)” gave a stoichiometry N in data set [11] of 4.

“Agrobacterium tumefaciens ADP-glucose pyrophosphorylase mutant D141N (from UniProt P39669) (enzyme)”: the stoichiometry N in data set [12] came out at 4.

The molecule “Agrobacterium tumefaciens ADP-glucose pyrophosphorylase double mutant R11D/D141R (from UniProt P39669) (enzyme)” showed a stoichiometry N in [13] of 4.

Consider `O=P(O)(O)OC[C@H]1OC(O)(CO)[C@@H](O)[C@@H]1O` (some centres unmarked) [Fru6P, fructose 6-phosphate], for which the EC50 turned out to be 1320 µM in data set [14]; 840 µM in data set [2]; 50 µM in data set [3]; 340 µM in [4]; 30 µM in data set [5] (read-out: A0.5); 2970 µM in [15]. In addition, the results for the EC50 in data set [6] and in data set [16] were 500 µM and 30 µM, respectively. For the same molecule, the Kd came out at 1510 µM in data set [7] and 1820 µM in [8].

In data set [17], “Agrobacterium tumefaciens ADP-glucose pyrophosphorylase mutant D141E (from UniProt P39669) (enzyme)” gave a stoichiometry N of 4.

In data set [18], “Agrobacterium tumefaciens ADP-glucose pyrophosphorylase mutant R11K (from UniProt P39669) (enzyme)” yielded a stoichiometry N of 4.

B1: Agrobacterium tumefaciens ADP-glucose pyrophosphorylase wild type (enzyme)
chain: T3 sequence (P39669 1-420)
notes: ADP-glucose pyrophosphorylase (EC 2.7.7.27) of Agrobacterium tumefaciens, ~50 kDa subunit, encoded by plasmid pBHL1 (pET28c derivative) of Hill et al., 2019; also called ADP-Glc PPase; WT; source: E. coli BL21 (DE3), purified (His-Trap FF Ni2+ column, Superdex 200 gel filtration)
As for B1, the “stoichiometry N” value in [19] worked out at 4.
